Among the data in PubChem BioAssay AID1259411 (Chemical Carcinogenesis Research Information System (CCRIS), 2018) are carcinogen call values, retold here.

The test system of the data set is rodent carcinogenicity bioassays, tumor incidence. Nature of the data set: CCRIS carcinogenicity studies. Summed up: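 Archive of carcinogenicity, mutagenicity, tumor promotion and tumor inhibition results drawn from journals, NCI reports and other sources, expert-reviewed; covers 1985-2011 and is no longer updated.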

The source made the active and inactive calls. No rule for the calls is given here.

As for `CCN(CC)C(=O)Nc1ccc(OCC(O)CNC(C)(C)C)c(C(C)=O)c1` (centres undefined), the carcinogen call is, setting by setting: (Species: MOUSE, Strain/Sex: CD-1/FEMALE, Route: ORAL, Dose: 0, 100, 300, 900 MG/KG IN DIET FOR DURATION OF STUDY (STUDY DURATION: 2 YR), Dose: 0, 100, 300, 900 MG/KG IN DIET FOR DURATION OF STUDY (STUDY DURATION: 2 YR)) “inactive; negative”; (Species: MOUSE, Strain/Sex: CD-1/MALE, Route: ORAL, Dose: 0, 100, 300, 900 MG/KG IN DIET FOR DURATION OF STUDY (STUDY DURATION: 2 YR), Dose: 0, 100, 300, 900 MG/KG IN DIET FOR DURATION OF STUDY (STUDY DURATION: 2 YR)) “inactive; negative”; (Species: RAT, Strain/Sex: SPRAGUE-DAWLEY/FEMALE, Route: ORAL, Dose: 0, 100, 300, 900 MG/KG IN DIET FOR 316 D THEN 0, 30, 100, 300 MG/KG FOR DURATION OF STUDY (STUDY DURATION: 2 YR), Dose: 0, 100, 300, 900 MG/KG IN DIET FOR 316 D THEN 0, 30, 100, 300 MG/KG FOR DURATION OF STUDY (STUDY DURATION: 2 YR)) “inactive; negative”; (Species: RAT, Strain/Sex: SPRAGUE-DAWLEY/MALE, Route: ORAL, Dose: 0, 100, 300, 900 MG/KG IN DIET FOR 316 D THEN 0, 30, 100, 300 MG/KG FOR DURATION OF STUDY (STUDY DURATION: 2 YR), Dose: 0, 100, 300, 900 MG/KG IN DIET FOR 316 D THEN 0, 30, 100, 300 MG/KG FOR DURATION OF STUDY (STUDY DURATION: 2 YR)) “inactive; negative”.

Regarding `Cc1cc(C)nc(NS(=O)(=O)c2ccc(N)cc2)n1`, the carcinogen call (Species: RAT, Strain/Sex: F344/FEMALE, Route: ORAL, TRANS-PLACENTAL, Dose: 0, 10, 40, 600 1200, 2400 PPM IN DIET FOR 24 MO (PARENTS FED 0; 10; 600; 1200; 2400 PPM RESPECTIVELY IN DIET) (STUDY DUR, Dose: 0, 10, 40, 600 1200, 2400 PPM IN DIET FOR 24 MO (PARENTS FED 0; 10; 600; 1200; 2400 PPM RESPECTIVELY IN DIET) (STUDY DUR, Tumor Site: Type of Lesion: THYROID GLAND: FOLLICULAR CELL ADENOCARCINOMA) was “active; positive” and the carcinogen call (Species: RAT, Strain/Sex: F344/MALE, Route: ORAL, TRANS-PLACENTAL, Dose: 0, 10, 40, 600 1200, 2400 PPM IN DIET FOR 24 MO (PARENTS FED 0; 10; 600; 1200; 2400 PPM RESPECTIVELY IN DIET) (STUDY DUR, Dose: 0, 10, 40, 600 1200, 2400 PPM IN DIET FOR 24 MO (PARENTS FED 0; 10; 600; 1200; 2400 PPM RESPECTIVELY IN DIET) (STUDY DUR, Tumor Site: Type of Lesion: THYROID GLAND: FOLLICULAR CELL ADENOCARCINOMA) was “active; positive”.

As for `COc1cc(OC)nc(NC(=O)NS(=O)(=O)c2cc(NC=O)ccc2C(=O)N(C)C)n1`, the carcinogen call was “inactive; negative” (Species: Mouse, Strain/Sex: Crl:CD-1(ICR)BR/Female (51/Group), Route: Oral, Dose: 0, 40, 800, 8000 ppm of 94.6% foramsulfuron in diet for 80 wk, study duration 80 wk, Dose: 0, 40, 800, 8000 ppm of 94.6% foramsulfuron in diet for 80 wk, study duration 80 wk); “inactive; negative” (Species: Mouse, Strain/Sex: Crl:CD-1(ICR)BR/Male (51/Group), Route: Oral, Dose: 0, 40, 800, 8000 ppm of 94.6% foramsulfuron in diet for 80 wk, study duration 80 wk, Dose: 0, 40, 800, 8000 ppm of 94.6% foramsulfuron in diet for 80 wk, study duration 80 wk); “inactive; negative” (Species: Rat, Strain/Sex: Sprague Dawley CRL:CD (IGS) BR/Female (50/Group), Route: Oral, Dose: 0, 100, 600, 6000, 20,000 ppm of 94.6% foramsulfuron in diet for 104 wk, study duration 104 wk, Dose: 0, 100, 600, 6000, 20,000 ppm of 94.6% foramsulfuron in diet for 104 wk, study duration 104 wk); “inactive; negative” (Species: Rat, Strain/Sex: Sprague Dawley CRL:CD (IGS) BR/Male (50/Group), Route: Oral, Dose: 0, 100, 600, 6000, 20,000 ppm of 94.6% foramsulfuron in diet for 104 wk, study duration 104 wk, Dose: 0, 100, 600, 6000, 20,000 ppm of 94.6% foramsulfuron in diet for 104 wk, study duration 104 wk).

Turning to `O=c1[nH]c(=O)n(C2CCCO2)cc1F` (centres undefined), the carcinogen call is, setting by setting: (Species: MOUSE, Strain/Sex: C57BL/CBA/FEMALE, Route: GAVAGE, Dose: 0, 40 MG/KG IN 0.2 ML OF A STARCH/WATER SUSPENSION 2/WK FOR 12 MO (STUDY DURATION: LIFETIME)) “inactive; negative”; (Species: MOUSE, Strain/Sex: C57BL/CBA/MALE, Route: GAVAGE, Dose: 0, 40 MG/KG IN 0.2 ML OF A STARCH/WATER SUSPENSION 2/WK FOR 12 MO (STUDY DURATION: LIFETIME)) “inactive; negative”; (Species: RAT, Strain/Sex: WISTAR/FEMALE, Route: GAVAGE, Dose: 0, 60 MG/KG IN 0.5 ML OF A STARCH/WATER SUSPENSION 2/WK FOR 12 MO (STUDY DURATION: LIFETIME)) “inactive; negative”; (Species: RAT, Strain/Sex: WISTAR/MALE, Route: GAVAGE, Dose: 0, 60 MG/KG IN 0.5 ML OF A STARCH/WATER SUSPENSION 2/WK FOR 12 MO (STUDY DURATION: LIFETIME)) “inactive; negative”.

For `C/[N+]([O-])=N/CO`, the carcinogen call is “active; positive” (Species: HAMSTER, Strain/Sex: SYRIAN/MALE,FEMALE, Route: INTRAVENOUS, Dose: 10 MG/KG BW, 4-5 INJ, Tumor Site: Type of Lesion: LIVER: CYSTADENOMA AND CYSTIC LESIONS, VASCULAR TUMOR, HEPATOCELLULAR CARCINOMA, INTESTINES (LARGE): ADENOMA, ADENOCARCI); “active; positive” (Species: HAMSTER, Strain/Sex: SYRIAN/MALE,FEMALE, Route: INTRAVENOUS, Dose: 15 MG/KG BW, 4-5 INJ, Tumor Site: Type of Lesion: LIVER: CYSTADENOMA AND CYSTIC LESIONS, VASCULAR TUMOR, HEPATOCELLULAR CARCINOMA, INTESTINES (LARGE): ADENOMA, ADENOCARCI); “active; positive” (Species: HAMSTER, Strain/Sex: SYRIAN/MALE,FEMALE, Route: INTRAVENOUS, Dose: 20 MG/KG BW, 3 INJ, Tumor Site: Type of Lesion: LIVER: CYSTADENOMA AND CYSTIC LESIONS, GALL BLADDER: ADENOCARCINOMA, INTESTINES (LARGE): ADENOCARCINOMA, Tumor Site: Type of Lesion: LIVER: CYSTADENOMA AND CYSTIC LESIONS, GALL BLADDER: ADENOCARCINOMA, INTESTINES (LARGE): ADENOCARCINOMA); “active; positive” (Species: HAMSTER, Strain/Sex: SYRIAN/MALE,FEMALE, Route: INTRAVENOUS, Dose: 20 MG/KG BW, SINGLE DOSE, Tumor Site: Type of Lesion: LIVER: ADENOCARCINOMA, HEPATOCELLULAR CARCINOMA, VASCULAR TUMOR, CYSTADENOMA AND CYSTIC LESIONS, INTESTINES (LARGE): ADE); “active; positive” (Species: RAT, Strain/Sex: SPRAGUE-DAWLEY/MALE, Route: INTRAVENOUS, Dose: 25 MG/KG 1/WK FOR 5 WK, Tumor Site: Type of Lesion: INTESTINES (JEJUNUM OR ILEUM), INTESTINES (COLON OR RECTUM), CECUM, DUODENUM, Tumor Site: Type of Lesion: INTESTINES (JEJUNUM OR ILEUM), INTESTINES (COLON OR RECTUM), CECUM, DUODENUM); “active; positive” (Species: RAT, Strain/Sex: SPRAGUE-DAWLEY/MALE, Route: INTRAVENOUS, Dose: 25 MG/KG 1/WK FOR 15 WK, Tumor Site: Type of Lesion: INTESTINES (JEJUNUM OR ILEUM), INTESTINES (COLON OR RECTUM), CECUM, DUODENUM, Tumor Site: Type of Lesion: INTESTINES (JEJUNUM OR ILEUM), INTESTINES (COLON OR RECTUM), CECUM, DUODENUM). The carcinogen call (Species: RAT, Strain/Sex: SPRAGUE-DAWLEY/MALE, Route: INTRAVENOUS, Dose: 25 MG/KG, SINGLE DOSE, Tumor Site: Type of Lesion: INTESTINES (JEJUNUM OR ILEUM), INTESTINES (COLON OR RECTUM)) was “active; positive”.

Regarding `O=C([O-])CN(CC(=O)[O-])CC(=O)[O-].[Cu+2]`, the carcinogen call (Species: RAT, Strain/Sex: WISTAR/MALE, Route: INTRAPERITONEAL, Tumor Site: Type of Lesion: KIDNEY: RENAL CELL CARCINOMA) is “active; positive”.

Take `C[C@]12CC[C@@H]3c4ccc(O)c(O)c4CC[C@H]3[C@@H]1CC[C@@H]2O`: the carcinogen call reads like this: (Species: MOUSE, Strain/Sex: CD-1/FEMALE, Route: SUBCUTANEOUS, Dose: 0, 2 UG/D IN CORN OIL ON DAYS 1-5 OF LIFE (STUDY DURATION: 12-18 WK), Tumor Site: Type of Lesion: UTERUS: ADENOCARCINOMA) “active; positive”; (Species: Mouse, Strain/Sex: CD-1/Female (45/experimental group; 40/control group), Route: Subcutaneous, Dose: 0, 2 ug in peanut oil, dosed on days 1-5 of life and retained for 1.5 (4 animals), 3 (4 animals), 6 (4 animals), 9 (4 an, Dose: 0, 2 ug in peanut oil, dosed on days 1-5 of life and retained for 1.5 (4 animals), 3 (4 animals), 6 (4 animals), 9 (4 an, Tumor Site: Type of Lesion: Uterus and ovaries examined) “inactive; negative; nonneoplastic changes observed”.
